Reference: article PMC5218480 (PLoS ONE, 2017)

System: MV-4-11 cells
Assay: Gene expression microarray analysis (Affymetrix PrimeView) and GSEA
Assay type: cell-based, human
Design: RFU PODN (11730768_x_at) / Fold change /veh PODN (11730768_x_at) / RFU LINC00158 (11744669_a_at) / Fold change /veh LINC00158 (11744669_a_at) / RFU DUSP10 (11751237_a_at) / Fold change /veh DUSP10 (11751237_a_at) / RFU ID3 (11757404_x_at) / Fold change /veh ID3 (11757404_x_at) / RFU PLEKHG5 (11737974_s_at) / Fold change /veh PLEKHG5 (11737974_s_at) / RFU LRRC4B (11730491_at) / Fold change /veh LRRC4B (11730491_at) / RFU GIMAP4 (11747438_a_at) / Fold change /veh GIMAP4 (11747438_a_at) / RFU KRT8 (11758183_x_at) / Fold change /veh KRT8 (11758183_x_at) / RFU CNN1 (11734310_a_at) / Fold change /veh CNN1 (11734310_a_at) / RFU VPS37D (11726825_at) / Fold change /veh VPS37D (11726825_at) / RFU C10orf10 (11716522_x_at) / Fold change /veh C10orf10 (11716522_x_at) / RFU KIR2DL2 /// KIR2DL4 /// KIR2DL5A /// KIR2DL5B /// KIR2DS1 /// KIR2DS2 /// KIR2DS3 /// KIR2DS4 /// KIR3DL3 /// KIR3DL3 /// KIR3DS1 (11738374_at) / Fold change /veh KIR2DL2 /// KIR2DL4 /// KIR2DL5A /// KIR2DL5B /// KIR2DS1 /// KIR2DS2 /// KIR2DS3 /// KIR2DS4 /// KIR3DL3 /// KIR3DL3 /// KIR3DS1 (11738374_at) / RFU C1QL1 (11718748_at) / Fold change /veh C1QL1 (11718748_at) / RFU TMPRSS4 (11747572_a_at) / Fold change /veh TMPRSS4 (11747572_a_at) / RFU HAMP (11756126_x_at) / Fold change /veh HAMP (11756126_x_at) / RFU RNFT2 (11725882_a_at) / Fold change /veh RNFT2 (11725882_a_at) / RFU NR4A2 (11747474_a_at) / Fold change /veh NR4A2 (11747474_a_at) / RFU ABCC12 (11746883_a_at) / Fold change /veh ABCC12 (11746883_a_at) / RFU TMEM136 (11760407_x_at) / Fold change /veh TMEM136 (11760407_x_at) / RFU CLDN22 /// WWC2 (11732394_at) / Fold change /veh CLDN22 /// WWC2 (11732394_at) / RFU HLA-DPB1 (11760878_x_at) / Fold change /veh HLA-DPB1 (11760878_x_at) / RFU SPINT1 (11716480_a_at) / Fold change /veh SPINT1 (11716480_a_at) / RFU GAP43 (11754022_s_at) / Fold change /veh GAP43 (11754022_s_at) / RFU A4GNT (11735810_at) / Fold change /veh A4GNT (11735810_at) / RFU PRB3 (11715151_x_at) / Fold change /veh PRB3 (11715151_x_at) / RFU TUBB4B (11761932_at) / Fold change /veh TUBB4B (11761932_at) / RFU CAPN14 (11732068_a_at) / Fold change /veh CAPN14 (11732068_a_at) / RFU TMCC2 (11721928_a_at) / Fold change /veh TMCC2 (11721928_a_at) / RFU IRGQ (11745062_a_at) / Fold change /veh IRGQ (11745062_a_at) / RFU FAM174B (11720279_a_at) / Fold change /veh FAM174B (11720279_a_at) / RFU TMPRSS4 (11748680_a_at) / Fold change /veh TMPRSS4 (11748680_a_at) / RFU FAM212B (11763350_a_at) / Fold change /veh FAM212B (11763350_a_at) / RFU PLEKHG5 (11743358_a_at) / Fold change /veh PLEKHG5 (11743358_a_at) / RFU ZSCAN30 (11745921_a_at) / Fold change /veh ZSCAN30 (11745921_a_at) / RFU CMKLR1 (11741424_a_at) / Fold change /veh CMKLR1 (11741424_a_at) / RFU LOC101060620 /// MAPK8IP1 (11723275_at) / Fold change /veh LOC101060620 /// MAPK8IP1 (11723275_at) / RFU SPTSSB (11747773_x_at) / Fold change /veh SPTSSB (11747773_x_at) / RFU PRSS12 (11739890_at) / Fold change /veh PRSS12 (11739890_at) / RFU BIN1 (11741810_x_at) / Fold change /veh BIN1 (11741810_x_at) / RFU WNT11 (11732464_a_at) / Fold change /veh WNT11 (11732464_a_at) / RFU C10orf10 (11716521_a_at) / Fold change /veh C10orf10 (11716521_a_at) / RFU C5orf56 (11738089_at) / Fold change /veh C5orf56 (11738089_at) / RFU CYB561 (11721691_x_at) / Fold change /veh CYB561 (11721691_x_at) / RFU ANKRD19P (11752326_a_at) / Fold change /veh ANKRD19P (11752326_a_at) / RFU OR2T12 /// OR2T33 /// OR2T8 (11738714_s_at) / Fold change /veh OR2T12 /// OR2T33 /// OR2T8 (11738714_s_at) / RFU VCAN (11748164_a_at) / Fold change /veh VCAN (11748164_a_at) / RFU JSRP1 (11732532_at) / Fold change /veh JSRP1 (11732532_at) / RFU KRTAP10-11 (11738290_x_at) / Fold change /veh KRTAP10-11 (11738290_x_at) / RFU MYO3A (11730013_a_at) / Fold change /veh MYO3A (11730013_a_at) / RFU EBF3 (11725865_a_at) / Fold change /veh EBF3 (11725865_a_at) / RFU CAMK2N1 (11719241_x_at) / Fold change /veh CAMK2N1 (11719241_x_at) / RFU C5orf56 (11738088_a_at) / Fold change /veh C5orf56 (11738088_a_at) / RFU OLFML3 (11715873_a_at) / Fold change /veh OLFML3 (11715873_a_at) / RFU LOC100653217 /// NTM (11731650_a_at) / Fold change /veh LOC100653217 /// NTM (11731650_a_at) / RFU MAPK11 (11762145_a_at) / Fold change /veh MAPK11 (11762145_a_at) / RFU FIZ1 (11724087_x_at) / Fold change /veh FIZ1 (11724087_x_at) / RFU OASL (11726364_x_at) / Fold change /veh OASL (11726364_x_at) / RFU SOX15 (11748057_x_at) / Fold change /veh SOX15 (11748057_x_at) / RFU CD79A (11719716_a_at) / Fold change /veh CD79A (11719716_a_at) / RFU HIST1H1D (11736915_at) / Fold change /veh HIST1H1D (11736915_at) / RFU CASKIN2 (11723855_a_at) / Fold change /veh CASKIN2 (11723855_a_at) / RFU LOC730098 (11760151_x_at) / Fold change /veh LOC730098 (11760151_x_at) / RFU OR4N2 (11742367_at) / Fold change /veh OR4N2 (11742367_at) / RFU PRRT2 (11749266_a_at) / Fold change /veh PRRT2 (11749266_a_at) / RFU SNX32 (11753110_a_at) / Fold change /veh SNX32 (11753110_a_at) / RFU CDHR5 (11726645_a_at) / Fold change /veh CDHR5 (11726645_a_at) / RFU RCAN1 (11760418_a_at) / Fold change /veh RCAN1 (11760418_a_at) / RFU FAM167A (11723789_a_at) / Fold change /veh FAM167A (11723789_a_at) / RFU FAM26E (11764081_at) / Fold change /veh FAM26E (11764081_at) / RFU ISYNA1 (11749810_s_at) / Fold change /veh ISYNA1 (11749810_s_at) / RFU ACY1 (11761880_at) / Fold change /veh ACY1 (11761880_at) / RFU 11764098_at / Fold change /veh 11764098_at / RFU SAMD14 (11745864_x_at) / Fold change /veh SAMD14 (11745864_x_at) / RFU NPB (11741838_a_at) / Fold change /veh NPB (11741838_a_at) / RFU TMPRSS6 (11731388_a_at) / Fold change /veh TMPRSS6 (11731388_a_at) / RFU KRTAP10-2 (11738614_at) / Fold change /veh KRTAP10-2 (11738614_at) / RFU ARHGAP8 /// PRR5-ARHGAP8 (11727945_x_at) / Fold change /veh ARHGAP8 /// PRR5-ARHGAP8 (11727945_x_at) / RFU KRTAP5-7 /// NADSYN1 (11734609_at) / Fold change /veh KRTAP5-7 /// NADSYN1 (11734609_at) / RFU RASL12 (11751679_a_at) / Fold change /veh RASL12 (11751679_a_at) / RFU CDKN2B (11736163_a_at) / Fold change /veh CDKN2B (11736163_a_at) / RFU PRF1 (11729649_at) / Fold change /veh PRF1 (11729649_at) / RFU, ZNF638 /// ZNF638-IT1 / Fold change vs veh, ZNF638 /// ZNF638-IT1 / RFU, PANK3 / Fold change vs veh, PANK3 / RFU, SH3YL1 / Fold change vs veh, SH3YL1 / RFU, ZEB2 / Fold change vs veh, ZEB2 / RFU, NRIP1 / Fold change vs veh, NRIP1 / RFU, PTTG1IP / Fold change vs veh, PTTG1IP / RFU, CAPN2 / Fold change vs veh, CAPN2 / RFU, MED14 / Fold change vs veh, MED14 / RFU, SNORA58 / Fold change vs veh, SNORA58 / RFU, C1orf63 / Fold change vs veh, C1orf63 / RFU, LRRFIP1 / Fold change vs veh, LRRFIP1 / RFU, NDUFAF7 / Fold change vs veh, NDUFAF7 / RFU, SLC12A2 / Fold change vs veh, SLC12A2 / RFU, IBTK / Fold change vs veh, IBTK / RFU, ESF1 / Fold change vs veh, ESF1 / Fold change vs veh, TMEM50B / RFU, TAOK1 / Fold change vs veh, TAOK1 / RFU, ACBD3 / Fold change vs veh, ACBD3 / RFU, TMA16 / Fold change vs veh, TMA16 / RFU, RWDD3 / Fold change vs veh, RWDD3 / RFU, BCAT1 / Fold change vs veh, BCAT1 / RFU, EDEM3 / Fold change vs veh, EDEM3 / RFU, TMEM33 / Fold change vs veh, TMEM33 / RFU, WDR75 / Fold change vs veh, WDR75 / RFU, AHCTF1 / Fold change vs veh, AHCTF1 / RFU, TFRC / Fold change vs veh, TFRC / RFU, ZDHHC17 / Fold change vs veh, ZDHHC17 / RFU, NOM1 / Fold change vs veh, NOM1 / RFU, ARL8B / Fold change vs veh, ARL8B / RFU, ZBTB11 / Fold change vs veh, ZBTB11 / RFU, TAMM41 / Fold change vs veh, TAMM41 / RFU, KIAA1704 /// LOC100996395 / Fold change vs veh, KIAA1704 /// LOC100996395 / RFU, ING1 / Fold change vs veh, ING1 / RFU, TRMT61B / Fold change vs veh, TRMT61B / RFU, FUBP3 / Fold change vs veh, FUBP3 / RFU, TP53 / Fold change vs veh, TP53 / RFU, TNKS2 / Fold change vs veh, TNKS2 / RFU, ZFP14 / Fold change vs veh, ZFP14 / RFU, ACTR2 / Fold change vs veh, ACTR2 / RFU, PPP3R1 / Fold change vs veh, PPP3R1 / RFU, PIK3R1 / Fold change vs veh, PIK3R1 / RFU, HNRNPA1 / Fold change vs veh, HNRNPA1 / RFU, RNF170 / Fold change vs veh, RNF170 / RFU, ZNF28 / Fold change vs veh, ZNF28 / RFU, RNGTT / Fold change vs veh, RNGTT / RFU, OGT / Fold change vs veh, OGT / RFU, BRD1 / Fold change vs veh, BRD1 / RFU, MARS / Fold change vs veh, MARS / RFU, ZNF655 / Fold change vs veh, ZNF655 / RFU, FAHD1 / Fold change vs veh, FAHD1 / RFU, BDP1 / Fold change vs veh, BDP1 / RFU, LRRCC1 / Fold change vs veh, LRRCC1 / RFU, ARID1A / Fold change vs veh, ARID1A / RFU, ZNF146 / Fold change vs veh, ZNF146 / RFU, ZNF330 / Fold change vs veh, ZNF330 / RFU, GPN3 / Fold change vs veh, GPN3 / RFU, C9orf123 / Fold change vs veh, C9orf123 / RFU, N4BP2L2 / Fold change vs veh, N4BP2L2 / RFU, ARFIP1 / Fold change vs veh, ARFIP1 / RFU, FAM179B / Fold change vs veh, FAM179B / RFU, BCL10 / Fold change vs veh, BCL10 / RFU, UHRF1BP1L / Fold change vs veh, UHRF1BP1L / RFU, BET1 / Fold change vs veh, BET1 / RFU, CNOT2 / Fold change vs veh, CNOT2 / RFU, ZNF268 / Fold change vs veh, ZNF268 / Fold change vs veh, ZNF507 / RFU, DGCR2 / Fold change vs veh, DGCR2 / RFU, WDSUB1 / Fold change vs veh, WDSUB1 / Fold change vs veh, HSP90B1 /// MIR3652 / RFU, ADSS / Fold change vs veh, ADSS / RFU, GK / Fold change vs veh, GK / RFU, ZNF148 / Fold change vs veh, ZNF148 / RFU, TAF9 / Fold change vs veh, TAF9 / RFU, SLC1A5 / Fold change vs veh, SLC1A5 / RFU, SLMO2 / Fold change vs veh, SLMO2 / RFU, ABCC4 / Fold change vs veh, ABCC4 / RFU, LOC101060439 /// RAP1B / Fold change vs veh, LOC101060439 /// RAP1B / RFU, RFX7 / Fold change vs veh, RFX7 / RFU, GTPBP10 / Fold change vs veh, GTPBP10 / RFU, CNEP1R1 / Fold change vs veh, CNEP1R1 / RFU, BIVM-ERCC5 /// ERCC5 / Fold change vs veh, BIVM-ERCC5 /// ERCC5 / RFU, ILF3 / Fold change vs veh, ILF3 / RFU 11762660_at / Fold change /veh 11762660_at / RFU VCAN (11757783_s_at) / Fold change /veh VCAN (11757783_s_at) / RFU DDX43 (11728927_at) / Fold change /veh DDX43 (11728927_at) / RFU KRT8 (11758188_x_at) / Fold change /veh KRT8 (11758188_x_at) / RFU NKD1 (11759106_at) / Fold change /veh NKD1 (11759106_at) / RFU SRD5A1 (11742802_a_at) / Fold change /veh SRD5A1 (11742802_a_at) / RFU TPSAB1 /// TPSB2 (11721975_s_at) / Fold change /veh TPSAB1 /// TPSB2 (11721975_s_at) / RFU GSTM3 (11746129_a_at) / Fold change /veh GSTM3 (11746129_a_at) / RFU IL23R (11737362_x_at) / Fold change /veh IL23R (11737362_x_at) / RFU TMEM51 (11727254_a_at) / Fold change /veh TMEM51 (11727254_a_at) / RFU PIWIL2 (11732686_x_at) / Fold change /veh PIWIL2 (11732686_x_at) / RFU ORM1 (11744905_x_at) / Fold change /veh ORM1 (11744905_x_at) / RFU CCDC152 (11743942_at) / Fold change /veh CCDC152 (11743942_at) / RFU ECM1 (11717891_a_at) / Fold change /veh ECM1 (11717891_a_at) / RFU IL23R (11748794_a_at) / Fold change /veh IL23R (11748794_a_at) / RFU TNFAIP8L3 (11732012_x_at) / Fold change /veh TNFAIP8L3 (11732012_x_at) / RFU MBOAT4 (11741988_at) / Fold change /veh MBOAT4 (11741988_at) / RFU 11764193_at / Fold change /veh 11764193_at / RFU TMEM53 (11763286_at) / Fold change /veh TMEM53 (11763286_at) / RFU MAGEB2 (11727129_at) / Fold change /veh MAGEB2 (11727129_at) / RFU TMEM200A (11744735_a_at) / Fold change /veh TMEM200A (11744735_a_at) / RFU CCDC152 (11751479_a_at) / Fold change /veh CCDC152 (11751479_a_at) / RFU FAM211A (11726209_a_at) / Fold change /veh FAM211A (11726209_a_at) / RFU RGS16 (11746705_a_at) / Fold change /veh RGS16 (11746705_a_at) / RFU VCAN (11755009_s_at) / Fold change /veh VCAN (11755009_s_at) / RFU RHOB (11743442_s_at) / Fold change /veh RHOB (11743442_s_at) / RFU RGS16 (11720943_a_at) / Fold change /veh RGS16 (11720943_a_at) / RFU RGS16 (11720944_at) / Fold change /veh RGS16 (11720944_at) / RFU, VPS4B / Fold change vs veh, VPS4B / RFU, CREB1 / Fold change vs veh, CREB1 / RFU, DNAJC13 / Fold change vs veh, DNAJC13 / RFU, GNAQ / Fold change vs veh, GNAQ / RFU, CDK5R1 / Fold change vs veh, CDK5R1 / RFU, ZRANB3 / Fold change vs veh, ZRANB3 / RFU, CUL4A / Fold change vs veh, CUL4A / RFU, CCNY / Fold change vs veh, CCNY / RFU, UFL1 / Fold change vs veh, UFL1 / RFU, COG3 / Fold change vs veh, COG3 / RFU, DIAPH2 / Fold change vs veh, DIAPH2 / RFU, SKA2 / Fold change vs veh, SKA2 / RFU, AFF3 / Fold change vs veh, AFF3 / RFU, LMF1 / Fold change vs veh, LMF1 / RFU, IPO11 / Fold change vs veh, IPO11 / RFU, DFFB / Fold change vs veh, DFFB / RFU, FOXP1 / Fold change vs veh, FOXP1 / RFU, CARD8 / Fold change vs veh, CARD8 / RFU, STRN3 / Fold change vs veh, STRN3 / RFU, ADK / Fold change vs veh, ADK / RFU, RASSF2 / Fold change vs veh, RASSF2 / RFU, WIPF1 / Fold change vs veh, WIPF1 / RFU, LARP1B / Fold change vs veh, LARP1B / RFU, RASA1 / Fold change vs veh, RASA1 / RFU, RB1 / Fold change vs veh, RB1 / RFU, PPFIA1 / Fold change vs veh, PPFIA1 / RFU, MAT2A / Fold change vs veh, MAT2A / RFU, CCT5 / Fold change vs veh, CCT5 / RFU, WDR92 / Fold change vs veh, WDR92 / RFU, CUX1 / Fold change vs veh, CUX1 / RFU, TTC7A / Fold change vs veh, TTC7A / RFU, TMEM135 / Fold change vs veh, TMEM135 / RFU, DEPTOR / Fold change vs veh, DEPTOR / RFU, CPM / Fold change vs veh, CPM / RFU, DNAJB6 / Fold change vs veh, DNAJB6 / RFU, CACNA2D3 / Fold change vs veh, CACNA2D3 / RFU, DTX4 / Fold change vs veh, DTX4 / RFU, TFCP2 / Fold change vs veh, TFCP2 / RFU, GMCL1 /// GMCL1P1 / Fold change vs veh, GMCL1 /// GMCL1P1 / RFU, AEBP2 / Fold change vs veh, AEBP2 / RFU, SNHG1 /// SNORD22 /// SNORD25 /// SNORD26 /// SNORD27 /// SNORD28 /// SNORD29 /// SNORD31 / Fold change vs veh, SNHG1 /// SNORD22 /// SNORD25 /// SNORD26 /// SNORD27 /// SNORD28 /// SNORD29 /// SNORD31 / Fold change (Aza/veh), C12orf56 (ProbeSet 11735607_a_at) / Fold change (ACY-1035/veh), C12orf56 (ProbeSet 11735607_a_at) / Fold change (Aza/veh), FGFR1OP (ProbeSet 11751329_s_at) / Fold change (ACY-1035/veh), FGFR1OP (ProbeSet 11751329_s_at) / Fold change (Aza/veh), VPS36 (ProbeSet 11739960_a_at) / Fold change (ACY-1035/veh), VPS36 (ProbeSet 11739960_a_at) / RFU SYPL1 (11715823_x_at) / Fold change /veh SYPL1 (11715823_x_at) / RFU IGFBP7 (11715501_s_at) / Fold change /veh IGFBP7 (11715501_s_at) / RFU REEP3 (11722064_at) / Fold change /veh REEP3 (11722064_at) / RFU IGLL1 (11728026_x_at) / Fold change /veh IGLL1 (11728026_x_at): dose or concentration left out as unconfirmed
Conditions: MV-4-11 cells, 48 hours

## Nc1ncn([C@@H]2O[C@H](CO)[C@@H](O)[C@H]2O)c(=O)n1 [azacitidine]
  Fold change /veh SNX32 (11753110_a_at): 1.11
